Data on eight compounds can be found in ChEMBL document CHEMBL1153771, “Gamma-lactone carbazoles from Clausena anisata” (2009).

Structures are written as SMILES. Active and inactive are the calls of the source. No cut-off for these calls is given here.

The first experiment deals with HL-60. Briefly: Cytotoxicity against human HL60 cells assessed as cell viability at 30 uM after 24 hrs by MTS assay.
Details: not given
Type of experiment: functional.
`O=Cc1cc2c(cc1O)[nH]c1ccccc12`: the outcome was inactive. As for `COC(=O)c1cc2c(cc1O)[nH]c1ccccc12`, the result was inactive. Same read-out and setting: to `COC(=O)c1cc(OC)c2[nH]c3ccccc3c2c1CC=C(C)C` belongs “inactive”; to `COC(=O)c1cc(O)c2[nH]c3ccccc3c2c1CC=C(C)C`, “inactive”. As to `COc1cc2[nH]c3ccccc3c2cc1C=O`, the result was inactive.

The experiment is the same for the next values; noted with them: HL-60, 24 h, read-out: Activity.
For the compound `COC(=O)c1cc(OC)c2[nH]c3ccccc3c2c1/C=C/C(C)(C)O` [CLAUSAMINE E], the viability at 30 µM was 47.3%. Turning to `COc1cc2c(c3c1[nH]c1ccccc13)CC(C(C)(C)O)OC2=O` (stereo not drawn) [CLAUSAMINE C], the viability at 30 µM is 79.7%. With `C=C(C)C1Cc2c(cc(OC)c3[nH]c4ccccc4c23)C(=O)O1` (stereo not drawn) [CLAUSAMINE B], the viability at 30 µM came out at 80.3%.
